Here are results for 24 compounds from PubChem BioAssay (NCI).

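How tested: cells in 96-well plates exposed to compound for 48 hours at five concentrations. Here, GI50 denotes the concentration required for 50% inhibition of growth. TGI marks complete inhibition of growth.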

The subject of the first assay is RPMI-8226 leukemia. As to the kind of experiment: DTP human tumour cell line panel, 48 h.
For the compound `OCC#Cc1ccccc1C#Cc1ccccc1`, the GI50 is 3 µM and the TGI turned out to be 11.8 µM.

Regarding `CC(=O)[C@@]12O[C@@H]1CC1C3CCC4=CC(O)CCC4(C)C3CCC12C` (stereo partly drawn), the GI50 was 21.6 µM and the TGI is 97.1 µM.

`CCOC(=O)NC(=O)c1cn(CCCO)c(=O)[nH]c1=O`: the TGI was greater than 100 µM.

Regarding `CN(C)c1nc(=Nc2ccc(N=c3nc(N(C)C)ss3)cc2)ss1`, the TGI came to 40.7 µM.

In turn, `COc1cc(OC)cc(-c2cc(=O)c3c(OC)c(OC)c(OC)c(OC)c3o2)c1` showed a TGI greater than 100 µM.

`CSc1nc(NC2OCC(OC(C)=O)C(OC(C)=O)C2OC(C)=O)c(N=CC=Nc2c(NC3OCC(OC(C)=O)C(OC(C)=O)C3OC(C)=O)nc(SC)[nH]c2=O)c(=O)[nH]1` (stereo not drawn) came in with a TGI greater than 100 µM.

`CCc1cc(Cc2cc(CC)c(NC(=O)C(=O)Cc3ccccn3)c(CC)c2Cl)c(Cl)c(CC)c1NC(=O)C(=O)Cc1ccccn1`: the TGI is greater than 100 µM.

`C[Si](C)(C)C1(Sc2ccccc2)SCCCS1` yielded a TGI greater than 100 µM.

For the compound `O=C(CSc1ccc(Cl)cc1)Nc1ccc(-c2nc3ccccc3s2)c(Cl)c1`, the GI50 is 2.66 µM and the TGI was greater than 100 µM.

With `ClCc1cccc(Cn2cnc3ncnc(Cl)c32)c1`, the GI50 was 13.7 µM and the TGI is 34.9 µM.

For `CCOC(=O)C(=C=C=C(c1ccccc1)c1ccccc1)C(=O)OCC`, the TGI was determined as 44.9 µM.

As to `C/C(=N\NC(=S)NC(CCC(=O)O)C(=O)O)c1ccccn1` (stereo not drawn), the TGI is greater than 100 µM.

Take `COc1cc(/C=C2\CN(S(=O)(=O)c3ccccc3)C/C(=C\c3cc(CN4CCCC4)c(O)c(OC)c3)C2=O)cc(CN2CCCC2)c1O`: the GI50 was 1.55 µM and the TGI turned out to be 5.03 µM.

The compound `CC(=O)/C(=C\c1cccc([N+](=O)[O-])c1)C(=O)Nc1ccccc1C` came in with a TGI greater than 100 µM.

The next assay concerns MALME-3M melanoma. As to the kind of experiment: DTP human tumour cell line panel, 48 h.
`O=c1cc(-c2ccccc2)oc2cc(OCCCOc3ccc4c(=O)cc(-c5ccccc5)oc4c3)ccc12` showed a TGI greater than 100 µM.

Compound `COc1cc2c(c(OC)c1OC)-c1ccc(OC)c(=O)cc1C(NC(=O)c1ccc(N=[N+]=[N-])cc1)CC2` (stereo not drawn) showed a total growth inhibition concentration (TGI) greater than 100 µM.

For `Cc1ccc(S(=O)(=O)Nc2ccccc2C(=O)c2ccc(C)c(C)c2)cc1`, the TGI is greater than 100 µM.

Regarding `CC(C)=Cc1cc(C(=O)Nc2ccc(Cl)c(Cl)c2)nc(N)n1`, the TGI was greater than 100 µM.

Regarding `Cn1cnc([N+](=O)[O-])c1Sc1nc2ccccc2[nH]1`, the TGI turned out to be 35 µM.

Compound `O=S(=O)(CCn1c(Sc2ccccc2)c(Sc2ccccc2)c2ccccc21)c1ccccc1` gave a TGI greater than 100 µM.

`CCOC(=O)NC(=O)c1cn(CCCO)c(=O)[nH]c1=O`: the total growth inhibition concentration (TGI) is greater than 100 µM.

`CN(C)c1nc(=Nc2ccc(N=c3nc(N(C)C)ss3)cc2)ss1` registered a TGI of 51.4 µM.

For the compound `COc1cc(OC)cc(-c2cc(=O)c3c(OC)c(OC)c(OC)c(OC)c3o2)c1`, the TGI is greater than 100 µM.

Turning to `CSc1nc(NC2OCC(OC(C)=O)C(OC(C)=O)C2OC(C)=O)c(N=CC=Nc2c(NC3OCC(OC(C)=O)C(OC(C)=O)C3OC(C)=O)nc(SC)[nH]c2=O)c(=O)[nH]1` (stereo not drawn), the TGI is greater than 100 µM.

Compound `CCc1cc(Cc2cc(CC)c(NC(=O)C(=O)Cc3ccccn3)c(CC)c2Cl)c(Cl)c(CC)c1NC(=O)C(=O)Cc1ccccn1` showed a TGI greater than 100 µM.

Compound `C[Si](C)(C)C1(Sc2ccccc2)SCCCS1` came in with a TGI greater than 100 µM.

Regarding `O=C(CSc1ccc(Cl)cc1)Nc1ccc(-c2nc3ccccc3s2)c(Cl)c1`, the GI50 is 4.77 µM and the TGI was determined as 36.2 µM.

`CCOC(=O)C(=C=C=C(c1ccccc1)c1ccccc1)C(=O)OCC` showed a total growth inhibition concentration (TGI) of 40.2 µM.

Compound `C/C(=N\NC(=S)NC(CCC(=O)O)C(=O)O)c1ccccn1` (stereo not drawn) displayed a TGI greater than 100 µM.

In turn, `CC(=O)/C(=C\c1cccc([N+](=O)[O-])c1)C(=O)Nc1ccccc1C` yielded a TGI greater than 100 µM.

The subject of the next assay is HCT-15 colon. As to the kind of experiment: DTP human tumour cell line panel, 48 h.
`O=c1cc(-c2ccccc2)oc2cc(OCCCOc3ccc4c(=O)cc(-c5ccccc5)oc4c3)ccc12` displayed a TGI greater than 100 µM.

Compound `COc1cc2c(c(OC)c1OC)-c1ccc(OC)c(=O)cc1C(NC(=O)c1ccc(N=[N+]=[N-])cc1)CC2` (stereo not drawn) had a TGI of 0.561 µM.

Compound `Cc1ccc(S(=O)(=O)Nc2ccccc2C(=O)c2ccc(C)c(C)c2)cc1` gave a TGI greater than 100 µM.

Compound `CC(C)=Cc1cc(C(=O)Nc2ccc(Cl)c(Cl)c2)nc(N)n1` showed a TGI greater than 100 µM.

Take `Cn1cnc([N+](=O)[O-])c1Sc1nc2ccccc2[nH]1`: the TGI worked out at 33.1 µM.

Consider `COc1ccc([C@H]2[C@@H](F)C(=O)N2c2cc(OC)c(OC)c(OC)c2)cc1F`, for which the GI50 was 0.0664 µM and the TGI was greater than 100 µM.

Compound `COc1cc(NCc2ccc3oc(=O)c(-c4ccccc4)nc3c2)cc(OC)c1OC` showed a TGI greater than 10 µM.

Compound `O=S(=O)(CCn1c(Sc2ccccc2)c(Sc2ccccc2)c2ccccc21)c1ccccc1` registered a TGI greater than 100 µM.

As for `O=C(Nc1ccc(Cl)cc1)c1cccc(NC2=C(Cl)C(=O)N(Cc3ccccc3)C2=O)c1`, the GI50 was 12.2 µM and the TGI stood at 26.9 µM.

For the compound `OCC#Cc1ccccc1C#Cc1ccccc1`, the GI50 is 11.5 µM and the TGI amounted to 24.8 µM.

On to `CC(=O)[C@@]12O[C@@H]1CC1C3CCC4=CC(O)CCC4(C)C3CCC12C` (stereo partly drawn), for which the GI50 was 33.1 µM and the TGI is greater than 100 µM.

On to `CCOC(=O)NC(=O)c1cn(CCCO)c(=O)[nH]c1=O`, for which the TGI was greater than 100 µM.

In turn, `CN(C)c1nc(=Nc2ccc(N=c3nc(N(C)C)ss3)cc2)ss1` came in with a TGI greater than 100 µM.

`COc1cc(OC)cc(-c2cc(=O)c3c(OC)c(OC)c(OC)c(OC)c3o2)c1` had a TGI greater than 100 µM.

As to `CSc1nc(NC2OCC(OC(C)=O)C(OC(C)=O)C2OC(C)=O)c(N=CC=Nc2c(NC3OCC(OC(C)=O)C(OC(C)=O)C3OC(C)=O)nc(SC)[nH]c2=O)c(=O)[nH]1` (stereo not drawn), the TGI is greater than 100 µM.

Consider `CCc1cc(Cc2cc(CC)c(NC(=O)C(=O)Cc3ccccn3)c(CC)c2Cl)c(Cl)c(CC)c1NC(=O)C(=O)Cc1ccccn1`, for which the TGI is greater than 100 µM.

Take `C[Si](C)(C)C1(Sc2ccccc2)SCCCS1`: the TGI was greater than 100 µM.

Regarding `O=C(CSc1ccc(Cl)cc1)Nc1ccc(-c2nc3ccccc3s2)c(Cl)c1`, the GI50 is 3.62 µM and the TGI was greater than 100 µM.

As for `ClCc1cccc(Cn2cnc3ncnc(Cl)c32)c1`, the GI50 was 1.96 µM and the TGI stood at 4.34 µM.

In turn, `CCOC(=O)C(=C=C=C(c1ccccc1)c1ccccc1)C(=O)OCC` showed a total growth inhibition concentration (TGI) of 49.1 µM.

`C/C(=N\NC(=S)NC(CCC(=O)O)C(=O)O)c1ccccn1` (stereo not drawn) returned a TGI greater than 100 µM.

Take `Cc1c2c(nn1-c1ccc(S(=O)(=O)/N=C3\SCCC(=O)N3c3ccccc3)cc1)-c1ccccc1CC2`: the GI50 is greater than 100 µM and the TGI is greater than 100 µM.

As for `COc1cc(/C=C2\CN(S(=O)(=O)c3ccccc3)C/C(=C\c3cc(CN4CCCC4)c(O)c(OC)c3)C2=O)cc(CN2CCCC2)c1O`, the GI50 is 2.3 µM and the TGI stood at 7.6 µM.

Turning to `CC(=O)/C(=C\c1cccc([N+](=O)[O-])c1)C(=O)Nc1ccccc1C`, the TGI was greater than 100 µM.

As usually defined, the GI50 is the concentration giving 50% growth inhibition. As a reminder, the TGI is the concentration at which net growth stops.
